Patent US20240190849A1, “AMINOPYRIMIDINE COMPOUNDS AND METHODS OF THEIR USE” (TYRA BIOSCIENCES, INC., priority 2021, published 2024)

Experiments:
FGFR1 = molecular target: T1, FGFR1 (Homo sapiens, UniProt P11362); test: Kinase binding assay (kinase-tagged T7 phage, affinity beads, qPCR readout), FGFR1; settings: FGFR binding data
T1 construct: made in house; host or cells: E. coli derived from BL21, infected with T7 phage
Method in brief: (§1)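 Kd values derive from Hill-equation fits (slope −1, Levenberg-Marquardt) of qPCR-quantified kinase recovered from ligand-coated beads. Compounds ran as 11-point 3-fold series, final DMSO 0.9%, with 1 hour room-temperature binding.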

FGFR2 = molecular target: T2, FGFR2 (Homo sapiens, UniProt P21802); test: Kinase binding assay (kinase-tagged T7 phage, affinity beads, qPCR readout), FGFR2; settings: FGFR binding data
T2 construct: made in house; host or cells: E. coli derived from BL21, infected with T7 phage
Method in brief: as §1

FGFR3 = molecular target: T3, FGFR3 (Homo sapiens, UniProt P22607); test: Kinase binding assay (kinase-tagged T7 phage, affinity beads, qPCR readout), FGFR3; settings: FGFR binding data
T3 construct: made in house; host or cells: E. coli derived from BL21, infected with T7 phage
Method in brief: as §1

FGFR3 (V555M) = molecular target: T4, FGFR3 (V555M) (Homo sapiens, UniProt P22607, V555M); test: Kinase binding assay (kinase-tagged T7 phage, affinity beads, qPCR readout), FGFR3 (V555M); settings: FGFR binding data
T4 construct: made in house; host or cells: E. coli derived from BL21, infected with T7 phage
Method in brief: as §1

[1] = system: RT112/84 (Bladder Cancer), FGFR3-TACC3 fusion; test: Cancer cell viability assay (Cell Titer-Glo), RT112/84; type: cell-based; settings: Homo sapiens, RT112/84 cells, 72 hours
Excerpt: (§2) RT112/84, UM-UC-14, SNU-16 and KG-1 Cancer Cell Line Cell Viability Assays
(§3) To detect the change of intracellular ATP by Cell Titer-Glo@ and to evaluate the inhibitory effect of the compounds on cancer cell lines by determining the in vitro IC50 value of the compounds.
(§4) Cell Titer-Glo@ 2.0 Luminescent cell viability assay reagent was purchased from Promega (Madison, WI). RT112/84, SNU-16, and KG-1 cell lines were purchased from American Type Culture Collection (Manassas, VA). UM-UC-14 cell line was purchased from Sigma (St. Louis, MO). RT112/84, UM-UC-14, SNU-16, and KG-1 cells were cultured in RPMI1640 media supplemented with 10% fetal bovine serum. Cultures were maintained at 37° C. in a humidified atmosphere of 5% CO2 and 95% air.
(§5) Cell Viability Assay Procedure: Cells were plated in 96-well clear bottom/white plates (Corning #3903) at 10,000 cells/well in 100 μl of media, incubated overnight. The next day, test compound DMSO stock solutions were made at 10 mM and 2 μM final concentration. Compounds were then added to cells in a 9-dose, […] dilution series starting at 30 μM with an HP 300e Digital Dispenser (each dose was applied in triplicate). DMSO was backfilled to each well up to 301 nL total volume of test compound+DMSO, and a total of 301 nL DMSO was added to a control/no test compound well in triplicate. The cells in cell culture plates were incubated with the compounds at 37° C. and 5% CO2 for 72 hours. Then 50 μl of Cell Titer Glo 2.0 reagent was added to each well of the cell culture plates. The contents were covered from light and mixed on an orbital shaker at room temperature for 10 min. Luminescence was recorded by a Synergy H1 Microplate Reader (Biotek, Winooski, VT). Cells were assessed as a percentage of DMSO only treated control cells. Curves were plotted and IC50 values were calculated using the GraphPad Prism 8 program based on a sigmoidal dose-response equation (4 parameter).

[2] = system: UM-UC-14 (Bladder Cancer), FGFR3(S249C); test: Cancer cell viability assay (Cell Titer-Glo), UM-UC-14; type: cell-based; settings: UMUC14, UM-UC-14 cells, 72 hours
Excerpt: as §2, §3, §4, §5

[3] = system: KG-1 (Acute Myeloid Leukemia), FGFR1OP2-FGFR1 fusion; test: Cancer cell viability assay (Cell Titer-Glo), KG-1; type: cell-based; settings: Homo sapiens, KG-1 cells, 72 hours
Excerpt: as §2, §3, §4, §5

[4] = system: SNU-16 (Gastric Carcinoma), FGFR2 amplification; test: Cancer cell viability assay (Cell Titer-Glo), SNU-16; type: cell-based; settings: Homo sapiens, SNU-16 cells, 72 hours, read-out: SNU16 FGFR2 (IC50 nM)
Method in brief: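 Cells seeded at 10,000/well in RPMI1640 with 10% FBS, then exposed 72 h at 37° C. to a 9-point 10-fold dilution series from 30 μM, in triplicate. Viability read as ATP luminescence (CellTiter-Glo 2.0) as percent of DMSO control; IC50 from 4-parameter sigmoidal fit.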

T4 sequence (P22607 23-806 V555M): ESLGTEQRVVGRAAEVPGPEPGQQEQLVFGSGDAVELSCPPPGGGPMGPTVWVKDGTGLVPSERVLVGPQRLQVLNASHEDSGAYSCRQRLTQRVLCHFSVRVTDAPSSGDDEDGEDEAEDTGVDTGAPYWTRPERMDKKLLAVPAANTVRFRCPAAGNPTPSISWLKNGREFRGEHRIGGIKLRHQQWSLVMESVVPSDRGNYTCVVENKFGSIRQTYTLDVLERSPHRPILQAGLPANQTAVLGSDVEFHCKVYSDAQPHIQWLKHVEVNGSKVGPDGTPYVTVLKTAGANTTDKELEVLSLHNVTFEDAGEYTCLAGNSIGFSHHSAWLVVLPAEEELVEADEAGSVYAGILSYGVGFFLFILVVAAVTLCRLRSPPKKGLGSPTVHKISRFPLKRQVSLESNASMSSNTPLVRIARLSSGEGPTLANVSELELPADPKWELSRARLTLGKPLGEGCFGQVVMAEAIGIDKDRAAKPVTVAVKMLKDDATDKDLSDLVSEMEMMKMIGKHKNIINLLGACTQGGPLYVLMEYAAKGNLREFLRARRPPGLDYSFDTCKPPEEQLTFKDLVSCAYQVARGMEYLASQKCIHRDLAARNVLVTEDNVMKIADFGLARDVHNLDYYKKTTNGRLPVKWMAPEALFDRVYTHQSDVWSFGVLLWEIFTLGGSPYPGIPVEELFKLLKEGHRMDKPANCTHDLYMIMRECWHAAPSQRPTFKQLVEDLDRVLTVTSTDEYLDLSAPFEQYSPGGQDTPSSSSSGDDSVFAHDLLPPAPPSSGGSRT
T1 sequence (P11362 22-822): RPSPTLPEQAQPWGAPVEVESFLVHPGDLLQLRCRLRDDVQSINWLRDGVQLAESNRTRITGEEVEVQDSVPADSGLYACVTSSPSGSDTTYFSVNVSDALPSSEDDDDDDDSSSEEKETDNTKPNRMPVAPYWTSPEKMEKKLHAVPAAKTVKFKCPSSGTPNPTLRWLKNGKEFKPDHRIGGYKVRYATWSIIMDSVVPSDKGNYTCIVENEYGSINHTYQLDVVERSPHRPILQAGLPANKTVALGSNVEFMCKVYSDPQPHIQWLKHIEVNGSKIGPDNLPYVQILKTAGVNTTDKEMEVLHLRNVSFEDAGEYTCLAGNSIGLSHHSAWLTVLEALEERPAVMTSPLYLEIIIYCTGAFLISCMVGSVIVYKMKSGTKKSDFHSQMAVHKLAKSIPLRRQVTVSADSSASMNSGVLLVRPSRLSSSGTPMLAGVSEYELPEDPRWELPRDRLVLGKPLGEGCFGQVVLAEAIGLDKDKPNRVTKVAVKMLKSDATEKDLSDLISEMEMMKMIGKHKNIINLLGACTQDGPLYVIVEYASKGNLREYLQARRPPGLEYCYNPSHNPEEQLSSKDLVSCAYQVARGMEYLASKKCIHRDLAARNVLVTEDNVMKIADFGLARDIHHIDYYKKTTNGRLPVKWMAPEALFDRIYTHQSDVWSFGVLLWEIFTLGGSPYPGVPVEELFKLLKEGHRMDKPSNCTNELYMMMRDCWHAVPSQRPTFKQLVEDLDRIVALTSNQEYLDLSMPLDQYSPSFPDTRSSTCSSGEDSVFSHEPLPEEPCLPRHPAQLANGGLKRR
T3 sequence (P22607 23-806): as the sequence (P22607 23-806 V555M) above, with M533V counted along it
T2 sequence (P21802 22-821): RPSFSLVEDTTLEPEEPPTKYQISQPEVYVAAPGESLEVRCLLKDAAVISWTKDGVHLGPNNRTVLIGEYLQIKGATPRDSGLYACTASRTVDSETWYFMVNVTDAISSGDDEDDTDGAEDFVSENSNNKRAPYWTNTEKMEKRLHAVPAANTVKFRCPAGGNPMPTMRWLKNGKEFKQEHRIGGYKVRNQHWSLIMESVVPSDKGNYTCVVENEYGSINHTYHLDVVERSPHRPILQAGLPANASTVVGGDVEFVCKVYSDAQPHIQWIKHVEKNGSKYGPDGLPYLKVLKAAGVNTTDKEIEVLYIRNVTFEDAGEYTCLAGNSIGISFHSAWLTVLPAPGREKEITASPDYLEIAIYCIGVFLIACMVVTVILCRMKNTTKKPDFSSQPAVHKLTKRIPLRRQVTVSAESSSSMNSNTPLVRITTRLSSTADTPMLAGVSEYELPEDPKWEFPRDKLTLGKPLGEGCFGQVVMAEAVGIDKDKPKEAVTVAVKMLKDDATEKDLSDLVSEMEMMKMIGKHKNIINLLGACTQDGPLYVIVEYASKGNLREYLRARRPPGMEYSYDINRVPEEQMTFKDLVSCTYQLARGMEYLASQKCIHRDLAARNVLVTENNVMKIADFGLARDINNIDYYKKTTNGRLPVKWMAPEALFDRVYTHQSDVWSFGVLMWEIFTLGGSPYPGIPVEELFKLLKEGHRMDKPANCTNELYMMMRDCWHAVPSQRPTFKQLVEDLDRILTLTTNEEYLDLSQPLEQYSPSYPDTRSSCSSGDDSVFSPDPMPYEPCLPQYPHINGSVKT

Row | SMILES | Kd (FGFR1) | Kd (FGFR2) | Kd (FGFR3) | Kd (FGFR3 (V555M)) | IC50 [1] | IC50 [2] | IC50 [3] | IC50 [4]
1 | C=CC(=O)Nc1ccc2c(ccn2-c2nc(Nc3cnn(C)c3)ncc2Cl)c1 [Example 2, N-[1-[5-chloro-2-[(1-methylpyrazol-4-yl)amino]pyrimidin-4-yl]indol-5-yl]prop-2-enamide] | 0.1 to 100 nM | 0.1 to 100 nM | 0.1 to 100 nM | 0.1 to 100 nM | 0.1 to 100 nM | 0.1 to 100 nM | 0.1 to 100 nM | –
2 | C=CC(=O)Nc1ccc2c(c1)c(C)cn2-c1nc(Nc2cn(C)cn2)ncc1C [Example 36, N-[3-methyl-1-[5-methyl-2-[(1-methylimidazol-4-yl)amino]pyrimidin-4-yl]indol-5-yl]prop-2-enamide] | 0.1 to 100 nM | 0.1 to 100 nM | 0.1 to 100 nM | 0.1 to 100 nM | 100 to 250 nM | 0.1 to 100 nM | – | –
3 | C=CC(=O)Nc1ccc2c(-c3ccnc(Nc4ccc(N5CCOCC5)cc4)n3)cn(C)c2c1 [Example 53, N-[1-Methyl-3-[2-(4-morpholino-anilino)pyrimidin-4-yl]indol-6-yl]prop-2-enamide] | 0.1 to 100 nM | 0.1 to 100 nM | 0.1 to 100 nM | 0.1 to 100 nM | – | 0.1 to 100 nM | 0.1 to 100 nM | 0.1 to 100 nM
4 | C=CC(=O)Nc1ccc2c(c1)c(C)cn2-c1nc(Nc2ccc(CN3CCOCC3)c(F)c2)ncc1Cl [Example 68, N-[1-[5-chloro-2-[3-fluoro-4-(morpholinomethyl)anilino]pyrimidin-4-yl]-3-methyl-indol-5-yl]prop-2-enamide] | 0.1 to 100 nM | 0.1 to 100 nM | 0.1 to 100 nM | 0.1 to 100 nM | 0.1 to 100 nM | 0.1 to 100 nM | – | –
5 | C=CC(=O)Nc1ccc2c(c1)c(C)cn2-c1nc(Nc2ccnn2C)ncc1F [Example 69, N-[1-[5-fluoro-2-[(2-methylpyrazol-3-yl)amino]pyrimidin-4-yl]-3-methyl-indol-5-yl]prop-2-enamide] | 100 to 250 nM | 0.1 to 100 nM | 0.1 to 100 nM | 0.1 to 100 nM | 0.1 to 100 nM | 0.1 to 100 nM | – | –
6 | C=CC(=O)Nc1ccc2c(c1)c(C)cn2-c1nc(Nc2cccc(CN3CCOCC3)c2)ncc1Cl [Example 78, N-[1-[5-chloro-2-[3-(morpholinomethyl)anilino]pyrimidin-4-yl]-3-methyl-indol-5-yl]prop-2-enamide] | 0.1 to 100 nM | 0.1 to 100 nM | 0.1 to 100 nM | 0.1 to 100 nM | 0.1 to 100 nM | – | – | 0.1 to 100 nM
7 | C=CC(=O)Nc1ccc2c(c1)c(C)cn2-c1nc(Nc2cnn(CCO)c2)ncc1C [Example 121, N-[1-[2-[[1-(2-hydroxyethyl)pyrazol-4-yl]amino]-5-methyl-pyrimidin-4-yl]-3-methyl-indol-5-yl]prop-2-enamide] | 0.1 to 100 nM | 0.1 to 100 nM | 0.1 to 100 nM | 0.1 to 100 nM | 0.1 to 100 nM | 0.1 to 100 nM | – | 0.1 to 100 nM
8 | C=CC(=O)Nc1ccc2c(c1)c(CC)cn2-c1nc(Nc2cnn(C)c2)ncc1C [Example 136, N-[3-ethyl-1-[5-methyl-2-[(1-methylpyrazol-4-yl)amino]pyrimidin-4-yl]indol-5-yl]prop-2-enamide] | 0.1 to 100 nM | 0.1 to 100 nM | 0.1 to 100 nM | 0.1 to 100 nM | 0.1 to 100 nM | 0.1 to 100 nM | – | 0.1 to 100 nM
9 | C=CC(=O)Nc1ccc2c(c1)c(C)cn2-c1nc(Nc2cnn(C)c2C)ncc1F [Example 146, N-[1-[2-[(1,5-dimethylpyrazol-4-yl)amino]-5-fluoro-pyrimidin-4-yl]-3-methyl-indol-5-yl]prop-2-enamide] | 0.1 to 100 nM | 0.1 to 100 nM | 0.1 to 100 nM | 0.1 to 100 nM | – | 0.1 to 100 nM | 0.1 to 100 nM | 0.1 to 100 nM
10 | C=CC(=O)Nc1ccc2c(c1)c(C)cn2-c1nc(Nc2cnn(CCCO)c2)ncc1F [Example 160, N-[1-[5-fluoro-2-[[1-(3-hydroxypropyl)pyrazol-4-yl]amino]pyrimidin-4-yl]-3-methyl-indol-5-yl]prop-2-enamide] | 0.1 to 100 nM | 0.1 to 100 nM | 0.1 to 100 nM | 0.1 to 100 nM | 0.1 to 100 nM | 0.1 to 100 nM | – | 0.1 to 100 nM
11 | C=CC(=O)Nc1ccc2c(c1)c(C)cn2-c1nc(Nc2cnn(CCOC)c2)ncc1F [Example 163, N-[1-[5-fluoro-2-[[1-(2-methoxyethyl)pyrazol-4-yl]amino]pyrimidin-4-yl]-3-methyl-indol-5-yl]prop-2-enamide] | 0.1 to 100 nM | 0.1 to 100 nM | 0.1 to 100 nM | 0.1 to 100 nM | 0.1 to 100 nM | 0.1 to 100 nM | – | 0.1 to 100 nM
12 | C=CC(=O)Nc1ccc2c(c1)c(C)cn2-c1nc(Nc2cn(C)nc2C)ncc1F [Example 167, N-[1-[2-[(1,3-Dimethylpyrazol-4-yl)amino]-5-fluoro-pyrimidin-4-yl]-3-methyl-indol-5-yl]prop-2-enamide] | 0.1 to 100 nM | 0.1 to 100 nM | 0.1 to 100 nM | 0.1 to 100 nM | 0.1 to 100 nM | 0.1 to 100 nM | – | 0.1 to 100 nM

More lines, now with the values ahead:

Row | Kd (FGFR1) | Kd (FGFR2) | Kd (FGFR3) | Kd (FGFR3 (V555M)) | IC50 [1] | IC50 [2] | IC50 [3] | IC50 [4] | SMILES
13 | 0.1 to 100 nM | 0.1 to 100 nM | 0.1 to 100 nM | 0.1 to 100 nM | 0.1 to 100 nM | 0.1 to 100 nM | – | 0.1 to 100 nM | C=CC(=O)Nc1ccc2c(c1)c(C)cn2-c1nc(Nc2cnn(CC(C)(C)O)c2)ncc1F [Example 181, N-[1-[5-fluoro-2-[[1-(2-hydroxy-2-methyl-propyl)pyrazol-4-yl]amino]pyrimidin-4-yl]-3-methyl-indol-5-yl]prop-2-enamide]
14 | 0.1 to 100 nM | 0.1 to 100 nM | 0.1 to 100 nM | 0.1 to 100 nM | 0.1 to 100 nM | – | – | 0.1 to 100 nM | C=CC(=O)Nc1ccc2c(c1)c(C)cn2-c1nc(Nc2cnn(C[C@@H](C)O)c2)ncc1F [Example 185, N-[1-[5-Fluoro-2-[[1-[(2R)-2-hydroxypropyl]pyrazol-4-yl]amino]pyrimidin-4-yl]-3-methyl-indol-5-yl]prop-2-enamide]
15 | 0.1 to 100 nM | 0.1 to 100 nM | 0.1 to 100 nM | 0.1 to 100 nM | 0.1 to 100 nM | – | – | 0.1 to 100 nM | C=CC(=O)Nc1ccc2c(c1)c(C)cn2-c1nc(Nc2cnn(C[C@H](C)O)c2)ncc1F [Example 186, N-[1-[5-Fluoro-2-[[1-[(2S)-2-hydroxypropyl]pyrazol-4-yl]amino]pyrimidin-4-yl]-3-methyl-indol-5-yl]prop-2-enamide]
16 | 0.1 to 100 nM | 0.1 to 100 nM | 0.1 to 100 nM | 0.1 to 100 nM | 0.1 to 100 nM | – | – | 0.1 to 100 nM | C=CC(=O)Nc1ccc2c(c1)c(C)cn2-c1nc(Nc2cn(C)nc2C)ncc1C [Example 187, N-[1-[2-[(1,3-dimethylpyrazol-4-yl)amino]-5-methyl-pyrimidin-4-yl]-3-methyl-indol-5-yl]prop-2-enamide]
17 | 0.1 to 100 nM | 0.1 to 100 nM | 0.1 to 100 nM | 0.1 to 100 nM | 0.1 to 100 nM | 0.1 to 100 nM | – | – | C=CC(=O)Nc1ccc2c(-c3ccnc(Nc4cnn(C(F)F)c4)n3)cn(C)c2c1 [Example 188, N-[3-[2-[[1-(difluoromethyl)pyrazol-4-yl]amino]pyrimidin-4-yl]-1-methyl-indol-6-yl]prop-2-enamide]
18 | 0.1 to 100 nM | 0.1 to 100 nM | 0.1 to 100 nM | 0.1 to 100 nM | 0.1 to 100 nM | 0.1 to 100 nM | – | – | C=CC(=O)Nc1ccc2c(-c3ccnc(Nc4cnn(C5CCC5)c4)n3)cn(C)c2c1 [Example 189, N-[3-[2-[(1-cyclobutylpyrazol-4-yl)amino]pyrimidin-4-yl]-1-methyl-indol-6-yl]prop-2-enamide]
